Tested on: 379773-124-R-J2-PDC complex spheroids, viability % test/control
Experiment: Anticancer human tumor 379773-124-R-J2-PDC patient-derived endometrial carcinoma cell line growth inhibition [CLK]
Settings: for IC50: curve of first compound; for viability, T/C: stronger effect = lower value
Description: A high-throughput screen of multi-cell type tumor spheroids was designed to identify active combinations of […] and targeted small molecules. Complex spheroids include a stromal component modeled by human endothelial cells (HUVEC) and fibroblasts modeled by human mesenchymal stem cells (MSCs). The concentration ranges selected for each drug and investigational agent were based upon clinically achievable concentrations if the clinical Cmax of the agent was known.
Compounds. The drugs and investigational agents: cirtuvivint (SM08502; NSC835563), CC-671 (NSC850746), vemurafenib (NSC761431), tapotoclax (NSC804041), sotorasib (NSC818433), adagrasib (NSC831453), MRTX-1133 (NSC836407), BAY2416964 (NSC825713), copanlisib (NSC816437), inavolisib (NSC800729), abemaciclib (NSC768073), osimertinib (NSC779217), entinostat (NSC756642), eltanexor (KPT-8602, NSC794443), venetoclax (NSC766270), ceralasertib (NSC777638), bortezomib (NSC756655), olaparib (NSC753686), talazoparib (NSC767125), alisertib (NSC759677), peposertib (NSC802822), gemcitabine (NSC613327), 5-fluorouracil (NSC19893), SN-38 (NSC673596), oxaliplatin (NSC266046), paclitaxel (NSC125973), and doxorubicin (NSC123127), were obtained from the National Cancer Institute (NCI) Developmental Therapeutics Program Chemical Repository. The FDA-approved anticancer drug set is available from the Developmental Therapeutics Program at https://dtp.cancer.gov/organization/dscb/obtaining/available plates.htm. […] The stock solutions were prepared in dimethyl sulfoxide (DMSO, Sigma-Aldrich, St. Louis, MO, cat. D2650), except for the platinum complexes which were prepared in saline (Quality Biological, Gaithersburg, MD, cat. 114-055-101), at 800-fold the tested concentration and stored at -70 degrees C prior to their use. All drugs and investigational agents were tested over a range starting from a high concentration at or near the clinical Cmax and decreasing in half-log increments. If the clinical Cmax for an agent had not been determined, the highest concentration tested was 10 microM.
Cell Culture. All cells were maintained in an incubator at 37 degrees C and 5% CO2 with 95% humidity. The PDC lines were cultured according to standard operating procedures established by the NCI PDMR. Briefly, all PDCs were thawed and cultured in Matrigel-coated flasks prepared with a working solution of 1X Ham's F-12 nutrient mix, without supplementation (Invitrogen, Waltham, MA, cat. 11765054), 100 U/mL penicillin-streptomycin (Invitrogen, cat. 15140122), and 2.5% Matrigel (Corning Inc., Corning, NY, cat. 354248) for the first three passages. The 947758-054-R-J2-PDC line was cultured in 6B/Colon 1A media, which includes advanced DMEM/F-12 (Thermo Fisher Scientific, cat. 12634028), 10 mM HEPES (Thermo Fisher Scientific, cat. 15630080), 1X GlutaMAX supplement (Thermo Fisher Scientific, cat. 35050061), 0.1 mg/mL primocin (InvivoGen, cat. ant-pm-2), 10% defined fetal bovine serum, heat inactivated (HyClone Laboratories Inc., cat. SH30070.03HI), 1.25 mM N-Acetyl-L-cysteine (Sigma-Aldrich, cat. A9165), 10 mM nicotinamide (Sigma-Aldrich, cat. N0636), 1X B-27 supplement (Thermo Fisher Scientific, cat. 17504044), 1X N-2 supplement (Thermo Fisher Scientific, cat. 17502048), and 10 microM Y-27632 dihydrochloride (Tocris Bioscience, cat. 1254). The 876862-298-R-J1-PDC was cultured in 6E media, which includes all 6B/Colon 1A media components plus 50% L-WRN conditioned media (ATCC, cat. CRL-3276), 50 ng/mL recombinant human EGF recombinant protein (hEGF; Thermo Fisher Scientific, cat. PHG0311), 10 ng/mL recombinant human fibroblast growth factor 10 (hGFG-10; PeproTech, cat. 100-26), 1 ng/mL recombinant human fibroblast growth factor 2 (hFGF-2; PeproTech, cat. 100-18B), and 1 µM prostaglandin E2 (PGE2; Tocris, cat. 2296). The 227483-062-R1-J1-PDC line was cultured in Panc media, containing all 6E components except hFGF-2, with the addition of 500 nM SB-431542 (Selleckchem, cat. S1067) and 10 nM gastrin (Tocris, cat. 3006). […]

[1] = second compound 0.0316 µM, first compound 0.0316 µM
[2] = second compound 0.0316 µM, first compound 0.1 µM
[3] = second compound 0.0316 µM, first compound 0.316 µM
[4] = second compound 0.0316 µM, first compound 1 µM
[5] = second compound 0.1 µM, first compound 0.0316 µM
[6] = second compound 0.1 µM, first compound 0.1 µM
[7] = second compound 0.1 µM, first compound 0.316 µM
[8] = second compound 0.1 µM, first compound 1 µM
[9] = second compound 0.316 µM, first compound 0.0316 µM
[10] = second compound 0.316 µM, first compound 0.1 µM
[11] = second compound 0.316 µM, first compound 0.316 µM
[12] = second compound 0.316 µM, first compound 1 µM
[13] = second compound 1 µM, first compound 0.0316 µM
[14] = second compound 1 µM, first compound 0.1 µM
[15] = second compound 1 µM, first compound 0.316 µM
[16] = second compound 1 µM, first compound 1 µM
[17] = second compound 3.16 µM, first compound 0.0316 µM
[18] = second compound 3.16 µM, first compound 0.1 µM
[19] = second compound 3.16 µM, first compound 0.316 µM
[20] = second compound 3.16 µM, first compound 1 µM
[21] = second compound 10 µM, first compound 0.0316 µM
[22] = second compound 10 µM, first compound 0.1 µM
[23] = second compound 10 µM, first compound 0.316 µM
[24] = second compound 10 µM, first compound 1 µM
[25] = second compound 0.0316 µM, first compound 0.00316 µM
[26] = second compound 0.0316 µM, first compound 0.01 µM
[27] = second compound 0.1 µM, first compound 0.00316 µM
[28] = second compound 0.1 µM, first compound 0.01 µM
[29] = second compound 0.316 µM, first compound 0.00316 µM
[30] = second compound 0.316 µM, first compound 0.01 µM
[31] = second compound 1 µM, first compound 0.00316 µM
[32] = second compound 1 µM, first compound 0.01 µM
[33] = second compound 3.16 µM, first compound 0.00316 µM
[34] = second compound 3.16 µM, first compound 0.01 µM
[35] = second compound 10 µM, first compound 0.00316 µM
[36] = second compound 10 µM, first compound 0.01 µM
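Note: compound exposure lasted seven days before the viability readout.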
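Throughout, for viability, T/C: 100% = DMSO vehicle control wells.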

CC(Nc1ccc2c(c1)OCCn1cc(N3C(=O)OCC3C(F)F)nc1-2)C(N)=O (stereo unspecified) + CN1CCN(c2cc(C(=O)Nc3cc4cc(-c5cnn(C)c5)ccc4cn3)ccn2)CC1
IC50 (second compound 0.0316 µM): > 10000 nM
IC50 (second compound 0.1 µM): 8870 nM
IC50 (second compound 0.316 µM): < 31.6 nM
IC50 (second compound 1 µM): < 31.6 nM
IC50 (second compound 3.16 µM): < 31.6 nM
IC50 (second compound 10 µM): < 31.6 nM
viability, T/C [1]: 85.2%
viability, T/C [2]: 89.8%
viability, T/C [3]: 69.3%
viability, T/C [4]: 89.3%
viability, T/C (second compound 0.0316 µM, first compound 3.16 µM): 68.6%
viability, T/C (second compound 0.0316 µM, first compound 10 µM): 62.5%
viability, T/C [5]: 92.4%
viability, T/C [6]: 81.8%
viability, T/C [7]: 87.2%
viability, T/C [8]: 68.9%
viability, T/C (second compound 0.1 µM, first compound 3.16 µM): 84.2%
viability, T/C (second compound 0.1 µM, first compound 10 µM): 46.2%
viability, T/C [9]: 19.4%
viability, T/C [10]: 22.5%
viability, T/C [11]: 21.1%
viability, T/C [12]: 18.9%
viability, T/C (second compound 0.316 µM, first compound 3.16 µM): 22.9%
viability, T/C (second compound 0.316 µM, first compound 10 µM): 11.4%
viability, T/C [13]: 0.15%
viability, T/C [14]: 0.14%
viability, T/C [15]: 0.75%
viability, T/C [16]: 0.56%
viability, T/C (second compound 1 µM, first compound 3.16 µM): 0.08%
viability, T/C (second compound 1 µM, first compound 10 µM): 0.1%
viability, T/C [17]: 0.84%
viability, T/C [18]: 0.13%
viability, T/C [19]: 0.14%
viability, T/C [20]: 0.52%
viability, T/C (second compound 3.16 µM, first compound 3.16 µM): 0.43%
viability, T/C (second compound 3.16 µM, first compound 10 µM): 0.48%
viability, T/C [21]: 0.1%
viability, T/C [22]: 0.12%
viability, T/C [23]: 0.71%
viability, T/C [24]: 1.07%
viability, T/C (second compound 10 µM, first compound 3.16 µM): 0.4%
viability, T/C (second compound 10 µM, first compound 10 µM): 0.19%

CCN1CCN(Cc2ccc(Nc3ncc(F)c(-c4cc(F)c5nc(C)n(C(C)C)c5c4)n3)nc2)CC1 + CN1CCN(c2cc(C(=O)Nc3cc4cc(-c5cnn(C)c5)ccc4cn3)ccn2)CC1
IC50 (second compound 0.0316 µM): > 1000 nM
IC50 (second compound 0.1 µM): > 1000 nM
IC50 (second compound 0.316 µM): < 3.16 nM
IC50 (second compound 1 µM): < 3.16 nM
IC50 (second compound 3.16 µM): < 3.16 nM
IC50 (second compound 10 µM): < 3.16 nM
viability, T/C [25]: 90.3%
viability, T/C [26]: 85.3%
viability, T/C [1]: 82.2%
viability, T/C [2]: 98%
viability, T/C [3]: 86%
viability, T/C [4]: 79.6%
viability, T/C [27]: 101%
viability, T/C [28]: 76.5%
viability, T/C [5]: 76.9%
viability, T/C [6]: 80.7%
viability, T/C [7]: 78.1%
viability, T/C [8]: 72%
viability, T/C [29]: 32.4%
viability, T/C [30]: 26%
viability, T/C [9]: 30.9%
viability, T/C [10]: 30.3%
viability, T/C [11]: 39.7%
viability, T/C [12]: 32.5%
viability, T/C [31]: 0.18%
viability, T/C [32]: 0.18%
viability, T/C [13]: 1.15%
viability, T/C [14]: 0.3%
viability, T/C [15]: 0.96%
viability, T/C [16]: 2.04%
viability, T/C [33]: 0.11%
viability, T/C [34]: 0.15%
viability, T/C [17]: 0.25%
viability, T/C [18]: 0.83%
viability, T/C [19]: 0.11%
viability, T/C [20]: 0.44%
viability, T/C [35]: 1.88%
viability, T/C [36]: 1.3%
viability, T/C [21]: 0.17%
viability, T/C [22]: 1.36%
viability, T/C [23]: 0.15%
viability, T/C [24]: 0.16%

COc1c(OCCCN2CCOCC2)ccc2c3n(c(=NC(=O)c4cnc(N)nc4)nc12)CCN3 + CN1CCN(c2cc(C(=O)Nc3cc4cc(-c5cnn(C)c5)ccc4cn3)ccn2)CC1
IC50 (second compound 0.0316 µM): 70.5 nM
IC50 (second compound 0.1 µM): 50.6 nM
IC50 (second compound 0.316 µM): < 3.16 nM
IC50 (second compound 1 µM): < 3.16 nM
IC50 (second compound 3.16 µM): < 3.16 nM
IC50 (second compound 10 µM): < 3.16 nM
viability, T/C [25]: 94.2%
viability, T/C [26]: 92.8%
viability, T/C [1]: 87.6%
viability, T/C [2]: 33.5%
viability, T/C [3]: 10.9%
viability, T/C [4]: 2.85%
viability, T/C [27]: 89.6%
viability, T/C [28]: 74.7%
viability, T/C [5]: 65.4%
viability, T/C [6]: 31.4%
viability, T/C [7]: 6.86%
viability, T/C [8]: 2.02%
viability, T/C [29]: 21%
viability, T/C [30]: 23.7%
viability, T/C [9]: 18.5%
viability, T/C [10]: 6.99%
viability, T/C [11]: 3.33%
viability, T/C [12]: 1.61%
viability, T/C [31]: 0.15%
viability, T/C [32]: 0.35%
viability, T/C [13]: 0.15%
viability, T/C [14]: 0.11%
viability, T/C [15]: 0.09%
viability, T/C [16]: 0.08%
viability, T/C [33]: 0.07%
viability, T/C [34]: 0.45%
viability, T/C [17]: 0.29%
viability, T/C [18]: 0.11%
viability, T/C [19]: 0.11%
viability, T/C [20]: 0.1%
viability, T/C [35]: 0.16%
viability, T/C [36]: 0.13%
viability, T/C [21]: 0.92%
viability, T/C [22]: 0.79%
viability, T/C [23]: 0.79%
viability, T/C [24]: 0.15%
